From PubChem BioAssay AID330 (DTP/NCI, 2004)
Where “and” joins values, the source holds several entries; their conditions need not be identical. Identical values can stand only once. Toxic doses and inconclusive results are not listed. How the source made its calls: active means survival T/C of 150% or more; inactive means T/C below 125% in these data.

Tested on: P388 leukemia ip, CD2F1 mice, survival T/C
Assay: NCI In Vivo Anticancer Drug Screen. Data for tumor model P388 Leukemia (intraperitoneal) in CD2F1 (CDF1) mice
Conditions: endpoint: median survival time, higher = longer survival
Procedure, shortened: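 Mice carrying the transplanted tumor received test compound or vehicle. Survival was recorded in each group, and the value is the treated-group measurement divided by that of the vehicle-treated control group.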

[1] = dose: 50.0 mg/kg/injection, schedule: Q01DX009 (ip), vehicle: Klucel (hydroxypropylcellulose) (HPC)
[2] = dose: 100.0 mg/kg/injection, schedule: Q01DX009 (ip), vehicle: Klucel (hydroxypropylcellulose) (HPC)
[3] = dose: 200.0 mg/kg/injection, schedule: Q01DX009 (ip), vehicle: Klucel (hydroxypropylcellulose) (HPC)
[4] = dose: 50.0 mg/kg/injection, schedule: Q01DX009 (ip), vehicle: saline
[5] = dose: 100.0 mg/kg/injection, schedule: Q01DX009 (ip), vehicle: saline
[6] = dose: 200.0 mg/kg/injection, schedule: Q01DX009 (ip), vehicle: saline
[7] = dose: 25.0 mg/kg/injection, schedule: Q01DX005 (ip), vehicle: Klucel (hydroxypropylcellulose) (HPC)
[8] = dose: 50.0 mg/kg/injection, schedule: Q01DX009 (ip), vehicle: saline with Tween-80
[9] = dose: 100.0 mg/kg/injection, schedule: Q01DX009 (ip), vehicle: saline with Tween-80
[10] = dose: 25.0 mg/kg/injection, schedule: Q01DX009 (ip), vehicle: saline with Tween-80
[11] = dose: 50.0 mg/kg/injection, schedule: Q01DX005 (ip), vehicle: Klucel (hydroxypropylcellulose) (HPC)
[12] = dose: 100.0 mg/kg/injection, schedule: Q01DX005 (ip), vehicle: Klucel (hydroxypropylcellulose) (HPC)
[13] = dose: 200.0 mg/kg/injection, schedule: Q01DX005 (ip), vehicle: Klucel (hydroxypropylcellulose) (HPC)
[14] = dose: 200.0 mg/kg/injection, schedule: Q01DX009 (ip), vehicle: saline with Tween-80
[15] = dose: 12.5 mg/kg/injection, schedule: Q01DX009 (ip), vehicle: saline with Tween-80

Measured: T/C

CC(=O)OCc1cc(-c2nc3ccccc3[nH]c2=O)nn1-c1ccc(Cl)cc1
inactive: dose: 25.0 mg/kg/injection, schedule: Q01DX005 (ip), vehicle: distilled water + alcohol 93 % of control | dose: 50.0 mg/kg/injection, schedule: Q01DX005 (ip), vehicle: distilled water + alcohol 90 % of control | dose: 100.0 mg/kg/injection, schedule: Q01DX005 (ip), vehicle: distilled water + alcohol 86 % of control | dose: 200.0 mg/kg/injection, schedule: Q01DX005 (ip), vehicle: distilled water + alcohol 87 % of control

Cn1ncc2c(=O)[nH]cnc21
inactive: [1] 93 % of control | [2] 93 % of control | [3] 96 % of control | dose: 400.0 mg/kg/injection, schedule: Q01DX009 (ip), vehicle: Klucel (hydroxypropylcellulose) (HPC) 97 % of control

Fc1ccc(NC(=S)Nc2ccccc2C(F)(F)F)cc1
inactive: [1] 92 % of control | [2] 92 % of control | [3] 100 % of control

Nc1ccc(C(=O)Nc2ccc(C(=O)Nc3ccc(/C=C/c4ccc(NC(=O)c5ccc(N)cc5)cc4S(=O)(=O)O)c(S(=O)(=O)O)c3)cc2)cc1
inactive: [4] 99 % of control | [5] 113 % of control | [6] 100 % of control

NS(=O)(=O)c1ccc(N=Nc2nc3[nH]c(=O)[nH]c(=O)c3[nH]2)cc1
inactive: dose: 6.25 mg/kg/injection, schedule: Q01DX005 (ip), vehicle: Klucel (hydroxypropylcellulose) (HPC) 106 % of control | dose: 12.5 mg/kg/injection, schedule: Q01DX005 (ip), vehicle: Klucel (hydroxypropylcellulose) (HPC) 102 % of control | [7] 107 % of control

NC(CCC(=O)NC(CSCC(=O)Nc1ccc(O)cc1)C(=O)NCC(=O)O)C(=O)O (stereo not given)
inactive: dose: 60.0 mg/kg/injection, schedule: Q01DX005 (ip), vehicle: saline 97 % of control | dose: 120.0 mg/kg/injection, schedule: Q01DX005 (ip), vehicle: saline 97 % of control | dose: 240.0 mg/kg/injection, schedule: Q01DX005 (ip), vehicle: saline 97 % of control

C=CC[n+]1ccc(/C=N\NC(N)=S)c2ccccc21
inactive: [8] 116 % of control | [9] 110 % of control

CC(=O)OC1=CC(=O)N(C(=O)c2ccccc2)C1
inactive: [1] 105 % of control | [2] 116 % of control | [3] 113 % of control

COc1cc2c(c(OC)c1OC)-c1ccc(O)c(=O)cc1C(NC(C)=O)CC2 (stereo not given)
inactive: dose: 2.5 mg/kg/injection, schedule: Q01DX009 (ip), vehicle: Klucel (hydroxypropylcellulose) (HPC) 100 % of control | dose: 5.0 mg/kg/injection, schedule: Q01DX009 (ip), vehicle: Klucel (hydroxypropylcellulose) (HPC) 99 % of control | dose: 10.0 mg/kg/injection, schedule: Q01DX009 (ip), vehicle: Klucel (hydroxypropylcellulose) (HPC) 100 % of control and 102 % of control | dose: 20.0 mg/kg/injection, schedule: Q01DX009 (ip), vehicle: Klucel (hydroxypropylcellulose) (HPC) 107 % of control and 115 % of control | dose: 40.0 mg/kg/injection, schedule: Q01DX009 (ip), vehicle: Klucel (hydroxypropylcellulose) (HPC) 108 % of control | dose: 80.0 mg/kg/injection, schedule: Q01DX009 (ip), vehicle: Klucel (hydroxypropylcellulose) (HPC) 110 % of control

FC(F)(F)c1ccc2cc(C3(C4CCNCC4)CCCO3)c3ccc(C(F)(F)F)cc3c2c1 (stereo not given)
inactive: dose: 12.5 mg/kg/injection, schedule: Q01DX009 (ip), vehicle: distilled water + Tween-80 104 % of control | dose: 25.0 mg/kg/injection, schedule: Q01DX009 (ip), vehicle: distilled water + Tween-80 95 % of control

CNc1nc(NC)nc(N(C)C=O)n1
inactive: [10] 95 % of control | [8] 90 % of control

CCC(/C=C/c1ccccc1)=N\NC(=O)c1ccccc1
inactive: dose: 50.0 mg/kg/injection, schedule: Q01DX005 (ip), vehicle: saline with Tween-80 96 % of control | dose: 100.0 mg/kg/injection, schedule: Q01DX005 (ip), vehicle: saline with Tween-80 96 % of control | dose: 200.0 mg/kg/injection, schedule: Q01DX005 (ip), vehicle: saline with Tween-80 95 % of control

N#CCc1cccc2c(=O)cc(-c3ccccc3)oc12
inactive: [11] 106 % of control | [12] 96 % of control | [13] 87 % of control

O=C/C=C/c1cccc([N+](=O)[O-])c1
inactive: [8] 113 % of control | [9] 113 % of control | [14] 104 % of control

CC(=O)NC(=S)Nc1cccs1
inactive: [15] 99 % of control | [10] 103 % of control | [8] 95 % of control

COC(=N)CCNC(=O)C(O)C(O)C(=O)NCCC(=N)OC (stereo not given)
inactive: [4] 102 % of control | [5] 89 % of control | [6] 105 % of control

NC(N)=NS(=O)(=O)c1ccc(N=NC2C(=O)N(c3ccc(Cl)cc3)C(=S)N(c3ccc(Cl)cc3)C2=O)cc1
inactive: dose: 25.0 mg/kg/injection, schedule: Q01DX005 (ip), vehicle: saline 103 % of control | dose: 50.0 mg/kg/injection, schedule: Q01DX005 (ip), vehicle: saline 106 % of control and 117 % of control | dose: 100.0 mg/kg/injection, schedule: Q01DX005 (ip), vehicle: saline 104 % of control and 124 % of control | dose: 200.0 mg/kg/injection, schedule: Q01DX005 (ip), vehicle: saline 108 % of control

CC(=O)OC1CCC2(C)C(C1)CC(OC(C)=O)C1C2CC(OC(C)=O)C2(C)C(C(C)CC(=O)C(=O)c3ccccc3)CCC12 (stereo not given)
inactive: [8] 103 % of control | [9] 94 % of control | [14] 98 % of control

CCOc1cnc(CO)o1
inactive: dose: 100.0 mg/kg/injection, schedule: Q04DX003 (ip), vehicle: saline 103 % of control | dose: 200.0 mg/kg/injection, schedule: Q04DX003 (ip), vehicle: saline 104 % of control | dose: 400.0 mg/kg/injection, schedule: Q04DX003 (ip), vehicle: saline 97 % of control

COc1c(/C=C/C=O)cc2c(c1OC)OCO2
inactive: [7] 97 % of control | [11] 97 % of control | [12] 104 % of control | [13] 100 % of control

COc1ccc(C(O)(c2ccccc2)c2ccccc2)c(OC)c1
inactive: [1] 98 % of control | [2] 93 % of control | [3] 95 % of control

COc1cccc(CN2CCCN(/N=C/c3c4c(O)c5c(O)c(C)c6c(c5c3O)C(=O)C(C)(O/C=C/C(OC)C(C)C(OC(C)=O)C(C)C(O)C(C)C(O)C(C)/C=C/C=C(/C)C(=O)N4)O6)CC2)c1 (stereo not given)
inactive: [15] 108 % of control | [10] 109 % of control | [8] 103 % of control and 108 % of control | [9] 115 % of control

C=C1C(=O)OC2C1CCC(C)C1C=CC(=O)C12C (stereo not given)
inactive: dose: 25.0 mg/kg/injection, schedule: Q04DX002 (ip), vehicle: saline with Tween-80 115 % of control | dose: 50.0 mg/kg/injection, schedule: Q04DX002 (ip), vehicle: saline with Tween-80 114 % of control | dose: 100.0 mg/kg/injection, schedule: Q04DX002 (ip), vehicle: saline with Tween-80 119 % of control

CC/C(=C(/CC)c1ccc(O)c(N(CCCl)CCCl)c1)c1ccc(O)c(N(CCCl)CCCl)c1
inactive: dose: 7.5 mg/kg/injection, schedule: Q01DX009 (ip), vehicle: saline 106 % of control | dose: 15.0 mg/kg/injection, schedule: Q01DX009 (ip), vehicle: saline 89 % of control | dose: 30.0 mg/kg/injection, schedule: Q01DX009 (ip), vehicle: saline 105 % of control

CN(C)CCOC(=O)Nc1ccc(Cc2ccc(NC(=O)OCCN(C)C)cc2)cc1
inactive: dose: 15.0 mg/kg/injection, schedule: Q01DX005 (ip), vehicle: saline with Tween-80 109 % of control | dose: 30.0 mg/kg/injection, schedule: Q01DX005 (ip), vehicle: saline with Tween-80 101 % of control | dose: 60.0 mg/kg/injection, schedule: Q01DX005 (ip), vehicle: saline with Tween-80 101 % of control and 109 % of control
